Legend:
APP α-secretase cleavage = experiment: Western blot of APP CTFs and sAPP-α in SweAPP N2a cells (Examples 6-7, with or without siRNA knock-down); format: cell-based, murine; conditions: various doses of EGCG, 8 h
Description: FIGS. 8A-8H show EGCG-induced ADAM10 activation correlates with APP α-secretase cleavage in vitro. […] Data were represented as % change relative to control (medium from cultured SweAPP N2a cells or primary neuronal cells without any treatment).
FIGS. 10A-10C show ADAM10 is required for EGCG-induced APP α-secretase cleavage. […] In FIG. 10A, cell lysates were subjected to WB for APP CTFs and ADAM10 cleavage analyses. […] In FIG. 10B, cell culture media were subjected to WB for sAPP-α secretion. […] In FIG. 10C, cell culture media were subjected to Aβ ELISA. Data are represented as % change relative to control (medium from cultured SweAPP N2a cells without any treatment). […] Data are representative of three independent experiments.
Cultured cells were lysed in ice-cold lysis buffer described above, and an aliquot corresponding to 50 μg of total protein was electrophoretically separated using 16.5% Tris-tricine gels. […] Densitometric analysis was done using the Fluor-S MultiImager™ with Quantity One™ software (Bio-Rad). […]
SweAPP N2a cells were transfected with siRNA pre-designed to knock-down murine ADAM9, 10, or 17 mRNA (Dharmacon Inc. Lafayette, Colo.). […] Transfection efficiency was determined to be greater than 80% (data not shown) using no-RISC siGLOW (fluorescently labeled non-functional siRNA; Dharmacon). […] The cells were evaluated by Western blot analysis for expression of ADAM9, 10 or 17. […]

Aβ1-40 and Aβ1-42 = experiment: Aβ1-40/Aβ1-42 ELISA, Tg2576 mouse-derived primary neuronal cells; format: cell-based; conditions: Tg2576 primary neurons; various doses, 8 h
Aβ generation = experiment: Aβ ELISA, conditioned media of APP-transfected N2a cells (Example 1); format: cell-based, murine
Protocol: Aβ1-40 and 1-42 peptides were analyzed in the conditioned media from SweAPP N2a cells (FIGS. 1A, 1C, 1D) and transgenic APPsw mouse-derived primary neuronal cells (FIG. 1B) by ELISA (n=3 for each condition).
TAPI-1, β and γ-secretase inhibitors were obtained from Calbiochem (San Diego, Calif.). Green tea extract (75% polyphenols) was obtained from the Vitamin Shoppe™ (North Bergen, N.J.).
Cultured cells were lysed in ice-cold-lysis buffer (20 mM Tris, pH 7.5, 150 mM NaCl, 1 mM EDTA, 1 mM EGTA, 1% v/v Triton X-100, 2.5 mM sodium pyropgosphate, 1 mM β-glycerolphosphate, 1 mM Na3VO4, 1 μg/mL leupeptin, 1 mM PMSF) as previously described (Tan et al., 2002). Mouse brains were isolated under sterile conditions on ice and placed in ice-cold lysis buffer. Brains were then sonicated on ice for approximately 3 min, allowed to stand for 15 min at 4° C., and centrifuged at 15,000 rpm for 15 min. Total Aβ1-42 species were detected by acid extraction of brain homogenates in 5 M guanidine buffer (ret), followed by a 1:10 dilution in lysis buffer. Soluble Aβ1-42 was directly detected in cultured cell lysates or brain homogenates prepared with lysis buffer described above by a 1:4 or 1:10 dilution, respectively. Aβ1-42 was quantified in these samples using the Aβ1-42 ELISA kit (BioSource, Camarillo, Calif.) in accordance with the manufacturer's instructions, except that standards included a 0.5 M guanidine buffer.
In order to examine the effects of green tea's components on APP cleavage processing, for a first step, N2a neuroblastoma cells overproducing Aβ were treated with each of the aforementioned components at a wide range of doses. In addition, doses of (+)-catechin hydrate (CH) and gallic acid monohydrate (GAM) were included in the first step.

O=C(O[C@@H]1Cc2c(O)cc(O)cc2O[C@@H]1c1cc(O)c(O)c(O)c1)c1cc(O)c(O)c(O)c1 [EGCG, (−)-epigallocatechin-3-gallate]
sAPP-α (APP α-secretase cleavage): dose-dependent increases
α-CTF (APP α-secretase cleavage): dose-dependent increases
Aβ1-40 levels (Aβ1-40 and Aβ1-42): dose-dependent reductions
Aβ1-42 levels (Aβ1-40 and Aβ1-42): dose-dependent reductions
reduction of Aβ1-42 generation over control (PBS) (Aβ generation; 20 μM, human APP695-transfected N2a cells, FIG. 1A): 60%
ability to inhibit Aβ generation, purified EGCG versus same amounts EGCG present in GT mixtures (Aβ generation; SweAPP N2a cells, equivalent doses, FIG. 1D): much greater
